Assay results reported in publication PMC10331583, “Control of fibrosis with enhanced safety via asymmetric inhibition of prolyl‐tRNA synthetase 1” (EMBO Molecular Medicine, 2023).
Where “and” joins values, the source holds several entries; their conditions need not be identical. Identical values can stand only once.

Experiments:
[1] = system: WI‐26 VA4 cells stably expressing PARS1 FA/EA/RL mutant; assay: Cytotoxicity assay in cells stably expressing PARS1 mutant; conditions: WI-26 VA4 Flag-PARS1 FA/EA/RL
[2] = as above; conditions: human; for activity at 72 h, 3 µM: 3000 nM; for activity at 72 h, 30 µM: 30000 nM; for activity at 72 h, 100 µM: 100000 nM
[3] = CellTiter‐Glo assay, screen of HF derivatives; assay type: cell-based; conditions: human, NHLF cells
Experimental: After 24 h, the cells were incubated with various concentrations of compounds for 48 h. The level of ATP as a measure of cell viability was determined using a CellTiter‐Glo® luminescent cell viability assay kit (Promega, G7571) following the manufacturer's instructions.

[4] = Cytotoxicity, % of control (single replicates, Experiment #1-#4), WI-26 VA4 Flag-PARS1 FA/EA/RL
[5] = Cytotoxicity, % of control, average, WI-26 VA4 Flag-PARS1 FA/EA/RL

SMILES: O[C@H]1CCCN[C@@H]1CCCn1cnc2c(Cl)c(Cl)ccc21 [DWN12088]
- Cytotoxicity, % of control (single replicates, Experiment #1-#4) ([1]; 10 nM, 0.01 µM): 127.65 % of control and 116.09 % of control and 111.66 % of control and 110.83 % of control and 101.75 % of control and 99.44 % of control and 110.49 % of control and 101.49 % of control
- Cytotoxicity, % of control (single replicates, Experiment #1-#4) ([1]; 30 nM, 0.03 µM): 126.96 % of control and 104.11 % of control and 114.08 % of control and 105.16 % of control and 106.38 % of control and 115.03 % of control and 93.72 % of control and 92.87 % of control
- Cytotoxicity, % of control (single replicates, Experiment #1-#4) ([1]; 100 nM, 0.1 µM): 127.60 % of control and 108.47 % of control and 113.70 % of control and 109.71 % of control and 111.06 % of control and 113.53 % of control and 98.60 % of control and 94.80 % of control
- Cytotoxicity, % of control (single replicates, Experiment #1-#4) ([1]; 300 nM, 0.3 µM): 132.76 % of control and 113.23 % of control and 105.15 % of control and 116.43 % of control and 104.37 % of control and 100.43 % of control and 94.90 % of control and 90.64 % of control
- Cytotoxicity, % of control (single replicates, Experiment #1-#4) ([1]; 1000 nM, 1 µM): 112.40 % of control and 100.20 % of control and 107.27 % of control and 121.00 % of control and 132.94 % of control and 130.17 % of control and 95.86 % of control and 86.64 % of control
- Cytotoxicity, % of control (single replicates, Experiment #1-#4) ([1]; 3000 nM, 3 µM): 71.51 % of control and 74.54 % of control and 81.32 % of control and 80.03 % of control and 89.57 % of control and 88.20 % of control and 83.52 % of control
- Cytotoxicity, % of control (single replicates, Experiment #1-#4) ([1]; 10000 nM, 10 µM): 63.68 % of control and 53.80 % of control and 76.80 % of control and 69.72 % of control and 64.84 % of control and 73.82 % of control and 81.37 % of control and 66.19 % of control
- Cytotoxicity, % of control (single replicates, Experiment #1-#4) ([1]; 30000 nM, 30 µM): 25.76 % of control and 18.61 % of control and 17.42 % of control and 17.01 % of control and 19.68 % of control and 18.20 % of control and 14.25 % of control
- Cytotoxicity, % of control (single replicates, Experiment #1-#4) ([1]; 100000 nM, 100 µM): 21.16 % of control and 22.59 % of control and 20.38 % of control and 17.48 % of control and 18.26 % of control and 18.73 % of control and 19.25 % of control
- Cytotoxicity, % of control (single replicates, Experiment #1-#4) ([1]; 300000 nM, 300 µM): 1.23 % of control and 1.09 % of control and 1.22 % of control and 0.52 % of control and 1.28 % of control and 1.77 % of control and 1.38 % of control and 0.29 % of control
- Cytotoxicity, % of control (single replicates, Experiment #1-#4) ([1]; 1000000 nM, 1000 µM): 0.10 % of control and -0.10 % of control and 0.29 % of control and -0.29 % of control and 0.16 % of control and -0.16 % of control and 0.22 % of control and -0.22 % of control
- Cytotoxicity HillSlope (best-fit value) ([1]; log(inhibitor) vs. response, variable slope (four parameters)): -1.118
- Cytotoxicity LogIC50 (best-fit value) ([1]; log(inhibitor) vs. response, variable slope (four parameters), concentration in nM): 4.071
- CC50 at 72 h [2]: 11.8 µM
- IC50 at 72 h [2]: 11.8 µM
- activity at 72 h, 3 µM [2, 4]: 85.2%
- activity at 72 h, 30 µM [2, 4]: 25.3%
- activity at 72 h, 100 µM [2, 4]: 22.8%
- activity at 72 h, 0.01 µM ([2]; Cytotoxicity, % of control, average, WI-26 VA4 Flag-PARS1 FA/EA/RL, 10 nM): 110%
- activity at 72 h, 0.03 µM ([2]; Cytotoxicity, % of control, average, WI-26 VA4 Flag-PARS1 FA/EA/RL, 30 nM): 107%
- activity at 72 h, 0.1 µM ([2]; Cytotoxicity, % of control, average, WI-26 VA4 Flag-PARS1 FA/EA/RL, 100 nM): 110%
- activity at 72 h, 0.3 µM ([2]; Cytotoxicity, % of control, average, WI-26 VA4 Flag-PARS1 FA/EA/RL, 300 nM): 107%
- activity at 72 h, 1 µM ([2]; Cytotoxicity, % of control, average, WI-26 VA4 Flag-PARS1 FA/EA/RL, 1000 nM): 111%
- activity at 72 h, 3 µM [2, 5]: 81.7%
- activity at 72 h, 10 µM ([2]; Cytotoxicity, % of control, average, WI-26 VA4 Flag-PARS1 FA/EA/RL, 10000 nM): 68.8%
- activity at 72 h, 30 µM [2, 5]: 19.5%
- activity at 72 h, 100 µM [2, 5]: 20.1%
- activity at 72 h, 300 µM ([2]; Cytotoxicity, % of control, average, WI-26 VA4 Flag-PARS1 FA/EA/RL, 300000 nM): 1.1%
- activity at 72 h, 1000 µM ([2]; Cytotoxicity, % of control, average, WI-26 VA4 Flag-PARS1 FA/EA/RL, 1000000 nM): 0%
- CC50 at 48 h [3]: > 100 µM
